From patent US8933016B2, “Metallodrugs having improved pharmacological properties and methods of manufacture and use thereof” (priority 2012, dated 2015)
pIC50: −log10 of the molar value. Converted amounts (≈) assume the structure as drawn. Where two headings read alike, the source gives them in different places. Ends that are not written are not given here. Peptide text beside a SMILES is read from it. * marks the point of attachment. X1 = COCCOCCOCCOCCOCCOCCOCCOCCOCCOCCOCCOCCNC(=O)CCN1C(=O)CC(*)C1=O

Columns and labels:
[1] = system: E. coli, 25922 (Ec)
[2] = in vitro; details: human
[3] = system: H. influenzae, 49247 (Hi)
[4] = system: K. pneumonia, 700603 (Kp); assay type: cell-based; details: Mueller Hinton Broth
[5] = system: S. pneumoniae, 49619 (Sp)
[6] = system: S. aureus, 29213 (Sa)
[7] = system: P. aeuginosa, 27583 (Pa)
[8] = system: A. baumanii, BAA-747 (Ab)
[9] = system: E. coli O157:H7, BAA-1883 (Ec F)
[10] = Cytotoxicity toward human Huh7 liver cells
[11] = system: B. cepacia, 25416 (Bc)
[12] = system: E. faecium, 700221 (Ef); details: Mueller Hinton Broth
[13] = system: E. coli (ATCC 25922); test: Protein oxidation, quantitation of protein carbonyls in E. coli; assay type: cell-based; details: 100 mM

Compound | MIC Ec ([1]; 25922 (Ec)) | pIC50 [2] | MIC Hi [3] | MIC Kp [4] | MIC Sp ([5]; 49619 (Sp)) | MIC Sa ([6]; 29213 (Sa)) | MIC Pa [7] | MIC Ab ([8]; BAA-747) | other results
GGHRRWKIVVIRWRRGGC [PEP 314, GGHRRWKIVVIRWRRGGC] | 14.6 µM | 4.77 | 3.7 µM | 14.6 µM | 0.9 µM | 29.2 µM | 14.6 µM | 7.3 µM | 
CC[C@H](C)[C@H](NC(=O)[C@H](Cc1c[nH]cn1)NC(=O)CNC(=O)CN)C(=O)N[C@@H](CCCNC(=N)N)C(=O)N[C@@H](CCCNC(=N)N)C(=O)N[C@H](C(=O)N[C@H](C(=O)N[C@@H](CCCNC(=N)N)C(=O)N[C@@H](CCCCN)C(=O)N[C@H](C(=O)N[C@H](C(=O)N[C@@H](Cc1c[nH]cn1)C(=O)N[C@H](C(=O)N[C@H](C(=O)N[C@@H](CCCCN)C(=O)N[C@@H](CCCCN)C(=O)NCC(=O)NCC(=O)N[C@@H](CSC1CC(=O)N(CCC(=O)NCCOCCOCCOCCOCCOCCOCCOCCOCCOCCOCCOCCOC)C1=O)C(=O)O)[C@@H](C)CC)[C@@H](C)CC)[C@@H](C)CC)[C@@H](C)CC)[C@@H](C)CC)[C@@H](C)CC (stereo partly shown) [PEP 318 PEG 12] (H-GGHIRRIIRKIIHIIKKGGC(X1)-OH; C-terminus assumed) | 10.7 µM (≈ 31.9 µg/mL) |  | 2.7 µM (≈ 8.05 µg/mL) | 21.4 µM (≈ 63.8 µg/mL) | 5.4 µM (≈ 16.1 µg/mL) |  |  | 5.4 µM (≈ 16.1 µg/mL) | MIC Ec F ([9]; O157:H7): 5.4 µM (≈ 16.1 µg/mL); pIC50 [10]: 3.82; MIC Bc [11]: 2.7 µM (≈ 8.05 µg/mL)
GGHIRRIIRKIIHIIKKGGC [PEP 318] | 7 µM | 4.39 |  | 28.2 µM | 3.5 µM | 14.1 µM | 28.2 µM | 7 µM | 
GGHGIRRIIRKIIHIIKKGGC [PEP 311] |  |  | 31.7 µM | 7.9 µM |  |  |  |  | MIC Ec ([1]; Mueller Hinton Broth): 7.9 µM; MIC Ef [12]: 4 µM; MIC Ec F ([9]; Mueller Hinton Broth): 4 µM; MIC Sp ([5]; Mueller Hinton Broth): 15.8 µM; MIC Sa ([6]; Mueller Hinton Broth): 7.9 µM; MIC Pa ([7]; Mueller Hinton Broth): 15.8 µM; MIC Ab ([8]; Mueller Hinton Broth): 2 µM
OO [H2O2, Hydrogen Peroxide] |  |  |  |  |  |  |  |  | Protein Carbonyls (nmol/mg protein) ([13]; 2 hours (PEP 188 table)): 0.87 nmol/mg protein; Protein Carbonyls (nmol/mg protein) ([13]; 2 hours, average of 2 separate experiments (PEP 189 table)): 0.44 nmol/mg protein
